Test results reported in PubChem BioAssay (NCI).
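In this assay, cells in 96-well plates receive the compound at five concentrations for 48 hours. Endpoints are linearly interpolated between the surrounding concentrations. GI50 marks 50% less growth. The concentration for full growth arrest is given as TGI.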

Experiments:
Assay in all cases: NCI tumour cell line growth inhibition, 48 h
SF-268 CNS = test system: SF-268 CNS
CAKI-1 renal = test system: CAKI-1 renal
SK-OV-3 ovarian = test system: SK-OV-3 ovarian
NCI-H460 lung = test system: NCI-H460 lung
MCF7 breast = test system: MCF7 breast
HT29 colon = test system: HT29 colon
A549 NSCLC = test system: A549 NSCLC
NCI-H23 lung = test system: NCI-H23 lung
RXF 393 renal = test system: RXF 393 renal
NCI-H522 lung = test system: NCI-H522 lung
MDA-MB-231 breast = test system: MDA-MB-231 breast
786-0 renal = test system: 786-0 renal
IGROV1 ovarian = test system: IGROV1 ovarian
BT-549 breast = test system: BT-549 breast
U251 CNS = test system: U251 CNS
HL-60(TB) leukemia = test system: HL-60(TB) leukemia
MOLT-4 leukemia = test system: MOLT-4 leukemia
HCT-116 colon = test system: HCT-116 colon
UO-31 renal = test system: UO-31 renal
DU-145 prostate = test system: DU-145 prostate
OVCAR-5 ovarian = test system: OVCAR-5 ovarian
HS 578T breast = test system: HS 578T breast
SW-620 colon = test system: SW-620 colon
OVCAR-4 ovarian = test system: OVCAR-4 ovarian
UACC-62 melanoma = test system: UACC-62 melanoma
COLO 205 colon = test system: COLO 205 colon
TK-10 renal = test system: TK-10 renal
T-47D breast = test system: T-47D breast
SK-MEL-28 melanoma = test system: SK-MEL-28 melanoma
UACC-257 melanoma = test system: UACC-257 melanoma
SK-MEL-5 melanoma = test system: SK-MEL-5 melanoma
NCI/ADR-RES ovarian = test system: NCI/ADR-RES ovarian
ACHN renal = test system: ACHN renal
HCT-15 colon = test system: HCT-15 colon
SF-539 CNS = test system: SF-539 CNS
HOP-62 NSCLC = test system: HOP-62 NSCLC
NCI-H226 lung = test system: NCI-H226 lung
LOX IMVI melanoma = test system: LOX IMVI melanoma
SK-MEL-2 melanoma = test system: SK-MEL-2 melanoma
OVCAR-8 ovarian = test system: OVCAR-8 ovarian
HOP-92 NSCLC = test system: HOP-92 NSCLC
SF-295 CNS = test system: SF-295 CNS
RPMI-8226 leukemia = test system: RPMI-8226 leukemia
MALME-3M melanoma = test system: MALME-3M melanoma
MDA-MB-435 = test system: MDA-MB-435
A498 renal = test system: A498 renal
SR leukemia = test system: SR leukemia
CCRF-CEM leukemia = test system: CCRF-CEM leukemia
SNB-75 CNS = test system: SNB-75 CNS
HCC-2998 colon = test system: HCC-2998 colon
K-562 leukemia = test system: K-562 leukemia
PC-3 prostate = test system: PC-3 prostate
M14 melanoma = test system: M14 melanoma
KM12 colon = test system: KM12 colon
SNB-19 CNS = test system: SNB-19 CNS
SN12C renal = test system: SN12C renal
EKVX NSCLC = test system: EKVX NSCLC

SMILES: Cn1ccnc1C(=O)/C=C/c1ccc(CNC(=O)c2ccc(Cl)cc2)cc1
- GI50 (SF-268 CNS): 2.38 µM
- TGI (SF-268 CNS): 6.27 µM
- GI50 (CAKI-1 renal): 3.34 µM
- TGI (CAKI-1 renal): > 14.3 µM
- GI50 (SK-OV-3 ovarian): 5.05 µM
- TGI (SK-OV-3 ovarian): > 14.3 µM
- GI50 (NCI-H460 lung): 2.61 µM
- TGI (NCI-H460 lung): 6.31 µM
- GI50 (MCF7 breast): 1.75 µM
- TGI (MCF7 breast): 6.3 µM
- GI50 (HT29 colon): 2.39 µM
- TGI (HT29 colon): 5.13 µM
- GI50 (A549 NSCLC): 3.6 µM
- TGI (A549 NSCLC): > 14.3 µM
- GI50 (NCI-H23 lung): 2.68 µM
- TGI (NCI-H23 lung): 6.47 µM
- GI50 (RXF 393 renal): 2.07 µM
- TGI (RXF 393 renal): 4.56 µM
- GI50 (NCI-H522 lung): 2.47 µM
- TGI (NCI-H522 lung): 4.83 µM
- GI50 (MDA-MB-231 breast): 3.36 µM
- TGI (MDA-MB-231 breast): 14.2 µM
- GI50 (786-0 renal): 2.58 µM
- TGI (786-0 renal): 5.76 µM
- GI50 (IGROV1 ovarian): 2.62 µM
- TGI (IGROV1 ovarian): 7.73 µM
- GI50 (BT-549 breast): 2.23 µM
- TGI (BT-549 breast): 4.65 µM
- GI50 (U251 CNS): 1.72 µM
- TGI (U251 CNS): 4.08 µM
- GI50 (HL-60(TB) leukemia): 3.4 µM
- TGI (HL-60(TB) leukemia): 11.6 µM
- GI50 (MOLT-4 leukemia): 3.82 µM
- TGI (MOLT-4 leukemia): 12.4 µM
- GI50 (HCT-116 colon): 2.28 µM
- TGI (HCT-116 colon): 5.05 µM
- GI50 (UO-31 renal): 1.84 µM
- TGI (UO-31 renal): 3.74 µM
- GI50 (DU-145 prostate): 2.2 µM
- TGI (DU-145 prostate): 4.23 µM
- GI50 (OVCAR-5 ovarian): 2.52 µM
- TGI (OVCAR-5 ovarian): 5.73 µM
- GI50 (HS 578T breast): 4.3 µM
- TGI (HS 578T breast): > 14.3 µM
- GI50 (SW-620 colon): 2.55 µM
- TGI (SW-620 colon): 5.88 µM
- GI50 (OVCAR-4 ovarian): 3.44 µM
- TGI (OVCAR-4 ovarian): > 14.3 µM
- GI50 (UACC-62 melanoma): 2.41 µM
- TGI (UACC-62 melanoma): 5.1 µM
- GI50 (COLO 205 colon): 2.45 µM
- TGI (COLO 205 colon): 6.05 µM
- GI50 (TK-10 renal): 3.92 µM
- TGI (TK-10 renal): 13 µM
- GI50 (T-47D breast): 3 µM
- TGI (T-47D breast): > 14.3 µM
- GI50 (SK-MEL-28 melanoma): 2.53 µM
- TGI (SK-MEL-28 melanoma): 5.31 µM
- GI50 (UACC-257 melanoma): 3.12 µM
- TGI (UACC-257 melanoma): 10.2 µM
- GI50 (SK-MEL-5 melanoma): 4.98 µM
- TGI (SK-MEL-5 melanoma): > 14.3 µM
- GI50 (NCI/ADR-RES ovarian): 4.03 µM
- TGI (NCI/ADR-RES ovarian): > 14.3 µM
- GI50 (ACHN renal): 2.98 µM
- TGI (ACHN renal): 7.42 µM
- GI50 (HCT-15 colon): 1.61 µM
- TGI (HCT-15 colon): 5.39 µM
- GI50 (SF-539 CNS): 2.06 µM
- TGI (SF-539 CNS): 4.12 µM
- GI50 (HOP-62 NSCLC): 2.43 µM
- TGI (HOP-62 NSCLC): 5.96 µM
- GI50 (NCI-H226 lung): 3.96 µM
- TGI (NCI-H226 lung): > 14.3 µM
- GI50 (LOX IMVI melanoma): 0.962 µM
- TGI (LOX IMVI melanoma): 2.96 µM
- GI50 (SK-MEL-2 melanoma): 3.42 µM
- TGI (SK-MEL-2 melanoma): 10.8 µM
- GI50 (OVCAR-8 ovarian): 4.15 µM
- TGI (OVCAR-8 ovarian): > 14.3 µM
- GI50 (HOP-92 NSCLC): 3.13 µM
- TGI (HOP-92 NSCLC): 12.9 µM
- GI50 (SF-295 CNS): 2.63 µM
- TGI (SF-295 CNS): 6.51 µM
- GI50 (RPMI-8226 leukemia): 1.82 µM
- TGI (RPMI-8226 leukemia): 6.42 µM
- GI50 (MALME-3M melanoma): 2.84 µM
- TGI (MALME-3M melanoma): 8.12 µM
- GI50 (MDA-MB-435): 2.73 µM
- TGI (MDA-MB-435): 6.37 µM
- GI50 (A498 renal): 2.18 µM
- TGI (A498 renal): 4.17 µM
- GI50 (SR leukemia): 0.626 µM
- TGI (SR leukemia): > 14.3 µM
- GI50 (CCRF-CEM leukemia): 3.38 µM
- TGI (CCRF-CEM leukemia): > 14.3 µM
- GI50 (SNB-75 CNS): 2.41 µM
- TGI (SNB-75 CNS): 10.3 µM
- GI50 (HCC-2998 colon): 2.26 µM
- TGI (HCC-2998 colon): 4.5 µM
- GI50 (K-562 leukemia): 2.2 µM
- TGI (K-562 leukemia): > 14.3 µM
- GI50 (PC-3 prostate): 2.8 µM
- TGI (PC-3 prostate): 7.18 µM
- GI50 (M14 melanoma): 2.78 µM
- TGI (M14 melanoma): 7 µM
- GI50 (KM12 colon): 2.13 µM
- TGI (KM12 colon): 4.19 µM
- GI50 (SNB-19 CNS): 2.15 µM
- TGI (SNB-19 CNS): 5.37 µM
- GI50 (SN12C renal): 3.29 µM
- TGI (SN12C renal): 11.4 µM
- GI50 (EKVX NSCLC): 3.71 µM
- TGI (EKVX NSCLC): > 14.3 µM
